Experiments:
Assay in all cases: relative viability (nuclei count vs DMSO), 5 days (fraction); higher = more cells survive
[1] = compound: CC1=CC=C(C=C1)C(=O)CN2C3=C(CCCC3)SC2=N [Pifithrin_alpha] + NC(=O)Nc1cc(-c2cccc(F)c2)sc1C(=O)N[C@H]1CCCNC1 [AZD7762] (partner 0.2 µM)
Outline: (§1)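 The day after seeding in 1536-well plates, lung cancer cell lines were treated by pin tool with a single drug, or with a fixed anchor-drug dose together with five library-drug doses (not always all listed) in √10 steps. After 5 days, a combined fix-and-stain solution (final 0.05% Triton X-100, 1% formaldehyde, 1 ug/ml Hoechst) was added. Nuclei counted on 4× images gave relative viability as treated counts over vehicle counts, reported as the median of duplicate plates.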

Bemcentinib + Trametinib = compound: Nc1nc(Nc2ccc3c(c2)CC[C@@H](N2CCCC2)CC3)nn1-c1cc2c(nn1)-c1ccccc1CCC2 [Bemcentinib] + CC(=O)Nc1cccc(-n2c(=O)n(C3CC3)c(=O)c3c(Nc4ccc(I)cc4F)n(C)c(=O)c(C)c32)c1 [Trametinib] (partner 0.02 µM)
Outline: as §1

[2] = compound: CC1=CC=C(C=C1)C(=O)CN2C3=C(CCCC3)SC2=N [Pifithrin_alpha] + Nc1nc2[nH]cc(CCc3ccc(C(=O)N[C@@H](CCC(=O)O)C(=O)O)cc3)c2c(=O)[nH]1 [Pemetrexed] (partner 0.2 µM)
Outline: as §1

[3] = compound: CC1=CC=C(C=C1)C(=O)CN2C3=C(CCCC3)SC2=N [Pifithrin_alpha] + Nc1ncn([C@H]2C[C@H](O)[C@@H](CO)O2)c(=O)n1 [Decitabine] (partner 2 µM)
Outline: as §1

Cell Line	relative viability ([1]; first compound 1 µM)	relative viability ([1]; first compound 3.162 µM)	relative viability ([1]; first compound 10 µM)	relative viability ([1]; first compound 31.62 µM)	relative viability ([1]; first compound 100 µM)	relative viability (Bemcentinib + Trametinib; first compound 0.04 µM)	relative viability (Bemcentinib + Trametinib; first compound 0.1265 µM)	relative viability (Bemcentinib + Trametinib; first compound 0.4 µM)	relative viability (Bemcentinib + Trametinib; first compound 1.265 µM)	relative viability (Bemcentinib + Trametinib; first compound 4 µM)	relative viability ([2]; first compound 1 µM)	relative viability ([2]; first compound 3.162 µM)	relative viability ([2]; first compound 10 µM)	relative viability ([2]; first compound 31.62 µM)	relative viability ([2]; first compound 100 µM)	relative viability ([3]; first compound 1 µM)	relative viability ([3]; first compound 3.162 µM)	relative viability ([3]; first compound 10 µM)	relative viability ([3]; first compound 31.62 µM)	relative viability ([3]; first compound 100 µM)
NCI-H23	0.229	0.279	0.265	0.172	0.268	0.363	0.432	0.353	0.429	0.466	0.679	0.609	0.734	0.479	0.547	0.317	0.316	0.317	0.283	0.337
NCI-H322M	0.413	0.462	0.48	0.498	0.487	0.477	0.534	0.496	0.504	0.51	0.635	0.599	0.605	0.578	0.511	0.72	0.708	0.719	0.78	0.784
NCI-H358	0.582	0.489	0.496	0.427	0.413	0.12	0.125	0.118	0.134	0.145	0.17	0.192	0.158	0.149	0.145	0.206	0.205	0.19	0.217	0.16
NCI-H441	1.34	1.16	1.3		1.06	0.294	0.435	0.499	0.347	0.409	0.297	0.248	0.235		0.244	0.233	0.294	0.212		0.301
NCI-H460	0.545	0.501	0.401		0.375	0.137	0.185	0.147	0.158	0.259	0.0605	0.0587	0.0622	0.0636	0.0898	0.531	0.496	0.392	0.218	0.215
NCI-H522	0.835	1.11	0.851	0.799	0.802	0.75	0.742	0.754	0.771	0.788	0.805	0.978	1.02	0.796	1.05	0.681	0.722	0.693	0.673	0.579
NCI-H596	1.18	0.967	0.926	0.939	1.03	0.911	0.965	0.93	0.946	0.923	0.523	0.468	0.513	0.498	0.483	0.89	1.15	1.12	1.07	1.09
NCI-H647		0.368	0.307	0.361	0.287	0.493	0.545	0.538	0.392	0.634	0.166	0.164	0.197	0.156	0.162	0.442	0.403	0.376	0.339	0.406
NCI-H838	0.875	0.909	0.832	0.744	0.884	0.501	0.535	0.533	0.432	0.534	0.194	0.242	0.272	0.235	0.287	0.427	0.473	0.441	0.387	0.389
NCI-H1355	0.857	0.633	0.511	0.463	0.514	0.407	0.414	0.462	0.405	0.509	0.977	0.972	0.764	0.686	0.677	0.308	0.349	0.339	0.29	0.304
NCI-H1395		0.385	0.397		0.361		1.12	1.02	1.2	1.11		0.897	0.907		0.908		0.649	0.709		0.735
NCI-H1437	1.21	1.21	1.11	0.735	0.942	0.539	0.683	0.486	0.455	0.644	0.337	0.313	0.309	0.258	0.253	0.626	0.605	0.563	0.586	0.364
NCI-H1648	0.607	0.959	0.836	0.582	0.504	0.636	0.455	0.477	0.481	0.408	0.805	0.49	0.924	0.655	0.671	0.478	0.597	0.464	0.406	0.496
NCI-H1651	0.399	0.461	0.454	0.361	0.512	0.85	0.831	0.788	0.951	0.852	0.211	0.632	0.553	0.539	0.666	0.166	0.642	0.569	0.537	0.635
NCI-H1666	0.767	0.717	0.677	0.581	0.491	0.972	0.954	0.926	1.01	0.925	0.876	0.784	0.767	0.617	0.714	0.523	0.595	0.557	0.615	0.569
NCI-H1734	0.486	0.526	0.517	0.429	0.524	0.679	0.743	0.739	0.625	0.701	0.452	0.434	0.428	0.367	0.358	0.497	0.463	0.502	0.441	0.556
